Source: patent publication US20040138312A1, “Methods for the treatment of neurodegeneration” (priority 2002, published 2004)

Tests used:
Assay type in all cases: in vivo, C57B1/B6 type mice
MPTP-treated mice [1] = assay: Open-Field test in MPTP-treated mice; conditions: for Open field activity compared with the vehicle group: 3 mg/kg/day s.c. osmotic mini-pump 14 days
Procedure: Each animal is placed in a clear plastic open field box with two rows of photo-beams mounted on the sides to distinguish be5tween horizontal (i.e. distance traveled) and vertical (i.e. “rears”) movements. Ambient conditions are low noise and dim lighting. The animal's movements within the box are measured for 5 minutes, and calculated from records of the number and type of “beam-breaks” or photo-beam crossings. On the last Open Field test, only rears are counted, and classified as either “supported” or “unsupported”. Supported rears are when an animal places at least one forelimb on the side wall of the box when a rear is recorded. In an unsupported rear the mouse is supported solely by hindlimbs. These rears are distinguished by videorecording. The number of unsupported rears is the most reliable measure of dopamine neuron loss in this test.
(§1) Mice that receive systemic injections of the pyridine toxin 1-methyl-4-phenyl-1,2,3,6-tetrahydropyridine (MPTP) selectively lose large numbers of dopaminergic neurons in the substantia nigra (SN) and the ventral tegmental area (VTA). Loss of dopamine cells in the SN mimics the clinical condition seen in Parkinson's disease. Loss of such cells in the VTA may contribute to the cognitive deficits seen in Parkinson's and Alzheimer's disease, due to these neurons' projections into the frontal cortex.
(§2) 50 C57B1/B6 type mice (8-12 weeks old) are allowed to acclimate for 12-14 days before experimental use. The mice are then randomly assigned to the following groups: MPTP plus DMSO vehicle; vehicle alone, MPTP plus brimonidine (3 mg/kg/day), MPTP plus AGN 197075 (3 mg/kg/day), and MPTP plus AGN 196923 (3 mg/kg/day)).
In the presently described assays, each mouse is then given an initial Open-Field test and a Tail Hanging test. […]
(§3) For all behavioral tests, the results are first analyzed using a repeated measures ANOVA, following by tests of the between groups effect using Fisher's HSD method.

MPTP-treated mice [2] = assay: Tail Hanging test (forelimb placement) in MPTP-treated mice; conditions: during the period that the compound is administered; 3 mg/kg/day s.c. mini-pump
Text: Mice are hung by their tails 3 times each, for approximately 10 seconds each time. Each mouse is hung by the base of its tail about 30 cm above the surface of a table until the mouse turns either left or right. A left turn is given a score of 0 and a right turn is given a score of 1.
Forelimb placement is also noted during tail hanging. The placement of the limbs is given a score on a 4 point scale. Extended limbs, or those placed above the head are given a score of 0. Limbs which are clasped or held against the body are given a score of 3. Scores of 1 or 2 are assigned for relative stages between the two extremes. Hindlimb placement is also scored as below.
as §1, §2
In the presently described assays, each mouse is then given an initial Open-Field test and a Tail Hanging test. The Open Field test is the most frequently used behavioral assay of MPTP-treated mice, and appears to be sensitive to loss of dopaminergic input from the substantia nigra. The Tail-Hanging test is sensitive to direct striatal damage; the Nest Building test is sensitive to loss of striatal input from the frontal cortex. […]
as §3

[3] = system: dopaminergic neurons in the substantia nigra (SN); assay: Neuron counting (tyrosine hydroxylase-labeled cells) in substantia nigra of MPTP-treated mice; conditions: for Neuron loss in the substantia nigra versus MPTP-treated animals: 3 mg/kg/day s.c. mini-pump 14 days, 55-60 days post MPTP; for Average Neuron Count (statistical error): substantia nigra, 3 mg/kg/day s.c. mini-pump 14 days + MPTP 40 mg/kg s.c., Control 60, Vehicle + MPTP 25
Text: (§4) Between 55 and 60 day post MPTP injection, the mice are sacrificed using sodium nembutol. Mouse brains are perfused with phosphate buffered saline followed by Lana's fixative (paraformaldehyde and picric acid). The brains are removed and placed in Lana's fixative for 7 to 10 days. The brains are then sectioned coronally at 50 micrometers using a vibratome. And the sections stained with an antibody to tyrosine hydoxylase, the rate limiting enzyme in dopamine synthesis. The section was then examined under microscope at 100× magnification. Tissue slices (−2.9 mm and −3.6 mm posterior to Bregma were selected for cell counting in the SN and VTA. These sections are at the midpoint of the rostral half and the midpoint of the cauldual half of SN, respectively. Each TH-labeled cell that is clearly visible that has between 2 and 6 neurites is considered a neuron. An overall average count for each animal is calculated from the four sections (rostral and caudal, left and right). An average is obtained for the four sections. Separate analyses are performed on the neuron counts from SN and VTA. These counts are analyzed using a repeated measures ANOVA, following by tests of the between groups effect using Fisher's HSD method.
as §1, §2
Four out of the 5 groups of mice receive an infusion of a test compound (or of vehicle containing no compound). These infusions are administered via subcutaneous implanted osmotic mini-pump over a 14 day period at a flow of 0.25 microliters/hour. Three days following implantation of the pumps, the mice are given the Open Field and Tail Hanging tests, along with the group of control mice, who are not implanted with mini-pumps. Immediately following the tests, the pump containing mice were given a 40 mg/kg injection of MPTP subcutaneously. All groups are then given the Open Field and Tail Hanging tests at 10-12 days and 30-40 days following MPTP treatment. The Open Field, and Tail Hanging tests are given at 50-55 days post MPTP treatment.

[4] = system: dopaminergic neurons in the ventral tegmental area (VTA); assay: Neuron counting (tyrosine hydroxylase-labeled cells) in ventral tegmental area of MPTP-treated mice; conditions: 3 mg/kg/day s.c. mini-pump 14 days; MPTP alone 28% fewer neurons than Control
Text: as §4, §1
as §2, with “mg/kg/day)). […]” for “mg/kg/day)).”

SMILES	Open field activity compared with the vehicle group (MPTP-treated mice [1]; 10 days post MPTP)	Impairment of forelimb extensions (tail hang test) (MPTP-treated mice [2])	Neuron loss in the substantia nigra versus MPTP-treated animals [3]	Average Neuron Count (statistical error) [3]	Reduction of MPTP-induced neuron loss in the Ventral Tegmental area [4]	Number of unsupported rears compared with vehicle (MPTP-treated mice [1]; 3 mg/kg/day s.c. mini-pump, 50-60 days post MPTP treatment)	Open field activity compared with the vehicle group (MPTP-treated mice [1]; 10 and 30 days post MPTP (40 mg/kg s.c.))
CCC1=CC(Cc2c[nH]cn2)CCC1 (stereo not drawn) [AGN 196923]	significant reduces the amount of activity	no such trend	significantly less neuron loss	35 (±2)	about 10%		
OCCNC(=S)NCc1cccc(Cl)c1F [AGN 197075]		significantly reduces this impairment	significantly less neuron loss	37 (±2)	about 10%	significantly more unsupported rears	
Brc1c(NC2=NCCN2)ccc2nccnc12 [brimonidine, reference compound]		no such trend	significantly less neuron loss	32 (±1)	about 10%		no alteration in this increase of activity
